Data set [1] in a line: In vitro mouse plasma stability. The settings on record: mouse plasma at 37 °C; incubated at 5 μM (final DMSO 0.1%); read-out: t1/2 plasma. Type of data set: in vitro ADME.
In the next data set the target is T1, NKCC2 (Homo sapiens, UniProt Q13621).
T1 construct: host or cells: HEK293
T1 sequence (Q13621 1-1099): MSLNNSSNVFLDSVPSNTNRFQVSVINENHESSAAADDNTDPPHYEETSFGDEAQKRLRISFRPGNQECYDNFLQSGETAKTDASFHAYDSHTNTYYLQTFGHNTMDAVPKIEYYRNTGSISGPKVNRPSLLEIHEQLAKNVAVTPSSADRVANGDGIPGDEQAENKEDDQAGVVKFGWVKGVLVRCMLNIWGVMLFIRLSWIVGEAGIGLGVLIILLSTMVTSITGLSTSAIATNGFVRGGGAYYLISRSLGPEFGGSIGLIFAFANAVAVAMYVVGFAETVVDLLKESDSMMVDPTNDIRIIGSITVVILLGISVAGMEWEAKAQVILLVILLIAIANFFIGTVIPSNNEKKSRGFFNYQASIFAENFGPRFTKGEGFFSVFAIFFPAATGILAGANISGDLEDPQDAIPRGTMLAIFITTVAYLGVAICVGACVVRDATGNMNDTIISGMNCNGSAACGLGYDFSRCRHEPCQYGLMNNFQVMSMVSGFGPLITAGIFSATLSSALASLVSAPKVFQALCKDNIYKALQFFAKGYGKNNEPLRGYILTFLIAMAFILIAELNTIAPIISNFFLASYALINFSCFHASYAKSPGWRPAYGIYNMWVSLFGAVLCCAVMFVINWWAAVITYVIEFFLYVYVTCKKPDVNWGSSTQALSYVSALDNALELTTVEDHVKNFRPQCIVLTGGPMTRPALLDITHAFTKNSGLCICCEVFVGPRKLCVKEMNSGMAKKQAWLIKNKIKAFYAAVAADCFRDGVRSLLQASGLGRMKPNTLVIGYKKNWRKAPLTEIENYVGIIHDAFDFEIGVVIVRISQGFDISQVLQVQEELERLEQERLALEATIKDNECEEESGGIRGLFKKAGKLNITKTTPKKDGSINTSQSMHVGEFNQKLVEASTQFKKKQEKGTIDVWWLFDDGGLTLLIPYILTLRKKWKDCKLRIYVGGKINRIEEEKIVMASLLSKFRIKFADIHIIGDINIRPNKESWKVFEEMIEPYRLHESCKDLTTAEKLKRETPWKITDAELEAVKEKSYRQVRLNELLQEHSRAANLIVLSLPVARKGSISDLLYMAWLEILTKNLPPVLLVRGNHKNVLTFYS
Details: method as in PMID 32818158. To be noted: 10 μM; cited from earlier work.

Data set [2] deals with Ts65Dn mice. The experiment in a line: T-maze test (short-term working memory). It counts as in vivo, mouse. To be noted: ip 0.6 mg kg-1 daily, chronic (7-21 days). The method, then: (§1) A veterinarian was employed to maintain the health and comfort of the animals. Mice were housed in filtered cages in a temperature-controlled room with a 12:12 h dark/light cycle and with ad libitum access to water and food. All efforts were made to minimize animal suffering and use the lowest possible number of animals required to produce statistical relevant results, according to the “3Rs concept”. In this study, we used Ts65Dn mice maintained in their original genetic background[57] by crossing (more than 40 times) Ts65Dn female to C57BL/6JEi × C3SnHeSnJ (B6EiC3) F1 males (Jackson Laboratories). Ts65Dn mice were genotyped by PCR as previously described.[58] Only males were used for behavioral experiments. Ts65Dn and controls were randomly assigned to vehicle groups (2% DMSO in saline), bumetanide (Sigma, 0.6 mg kg^–1 body weight), or 40 (0.6 mg kg^–1 body weight) and treated daily for ∼21 days by intraperitoneal injection (i.p.). On the day of behavioral testing, injection was performed 1 h before the task began.
(§2) Ts65Dn male mice (8–16 weeks old) were tested after 1 week of treatment with vehicle or 40 (0.6 mg kg^–1 i.p.). The battery of tests was run over a total period of ∼14 days (four behavioral tests with the following order Open Field, NOR, T-maze, and CFC). […] The tasks were video-recorded and then analyzed manually by a blind operator.

Data set [3] has as its system Ts65Dn mice. In words: Contextual fear-conditioning (CFC) test. Type of data set: in vivo, mouse. To be noted: ip 0.6 mg kg-1 daily, chronic, re-exposure 24 h after conditioning. The method, then: as §1, §2

Structures are written as SMILES.

Take `CN(C)S(=O)(=O)c1cc(C(=O)O)ccc1NCCCCCCCC(F)(F)F` [Compound 1, 3-(-N,N-Dimethylsulfamoyl)-4-(8,8,8-trifluorooctylamino)benzoic Acid]: the half-life at 5 μM in data set [1] was above 2 h. Besides, on NKCC2, the “inhibition of NKCC2 in the Cl- influx assay” value is on record as “did not show any significant inhibition”.

In the case of `CN(C)S(=O)(=O)c1cc(C(=O)O)c(O)cc1NCCCCCCCC(F)(F)F` [Compound 40, 5-(N,N-Dimethylsulfamoyl)-2-hydroxy-4-((8,8,8-trifluorooctyl)amino)benzoic Acid], the half-life at 5 μM in data set [1] was above 2 h. In addition, the “short-term working memory in the T-maze test (number of correct choices)” value in the data set with Ts65Dn mice [2] is “fully restored”. Further, the “associative memory in the CFC test (freezing response)” value in the data set on Ts65Dn mice [3] is on record as “completely restored”.

Values taken from publication PMC8311653, “Design, Synthesis, In Vitro and In Vivo Characterization of Selective NKCC1 Inhibitors for the Treatment of Core Symptoms in Down Syndrome” (Journal of Medicinal Chemistry, 2021).
